Measurements: patent US3971779A, “7-[2-(5-Amino-1,3,4-thiadiazol-2-ylthio)acetamido]cephalosporins” (American Home Products Corporation, priority 1975, dated 1976)
≈ marks a conversion by molar mass, not a printed value. Read-outs that look alike come from different tables or passages of the source.

Experiments:
[1] = test system: Providencia stuartii 25825; assay: agar serial dilution MIC; assay type: cell-based; settings: Example 4
Experimental: (§1) A stock solution of 7-[2-(4,5-dihydro-5-imino-1,3,4-thiadiazol-2-ylthio)acetamido]cephalosporanic acid as the hydrobromic acid addition salt containing 2,500 μg. of the active moiety is prepared in phosphate buffer. Two fold serial dilutions are prepared with phosphate buffer. One milliliter (ml.) quantities of each dilution are incorporated in 9 ml. seen agar in sterile Petri plates. The hardened surface is innoculated with test organisms using a Steers replicating device. The plates are incubated at 35° C. for 18 hours.
(§2) The test organisms are Bacillus subtilis (BA SU) 6633; Staphylococcus aureus (ST AU) 6538P, Smith CHP, and 3-180; Mycobacterium smegmatis (MY SM) 10143; Neisseria catarrhalis (NE CA) 8193; Pseudonomas aeruginosa (PS AE) 10145; Escherichia coli (ES CO) 9637, and 920; Escherichia intermedia (ES IN) 65-1; Salmonella paratyphi (SA PA) 11737; Enterobacter aerogenes (EN AE) 13048; Klebsiella pneumoniae (KL PN) 10031; Bordetella bronchiseptica (BO BR) 4617; Proteus vulgaris (PR VU) 6896; and Herellea species (HE SP) 9955. These organisms are grown for 18 hours in Brain heart infusion at 35° C. Prior to use the cultures are diluted 10 fold with the infusion, except in the case of Mycobacterium. The latter is grown in Emerson's broth for 5 days at 28° C. in shaker flasks and used undiluted.
(§3) Following the procedure of Example 2 but substituting the organisms listed below the same preparation of 7-[2-(4,5-dihydro-5-imino-1,3,4-thiadiazol-2-ylthio)acetamido]cephalosporanic acid (Compound A) as used in Example 3, a third sample of the same compound, prepared as described in Example 1 (Compound B) and 7-[2-(5-acetamido-1,3,4-thiadiazol-2-ylthio)acetamido]cephalosporanic acid (Compound C) are tested to obtain the results shown: […]

[2] = test system: Salmonella enteritidis 13076; assay: agar serial dilution MIC; assay type: cell-based; settings: Salmonella enterica, Example 4
Experimental: as §1, §2, §3

Proteus rettgeri 9918 = assay: agar serial dilution MIC; assay type: cell-based; settings: Providencia rettgeri, Example 4
Experimental: as §1, §2, §3

[3] = test system: Enterobacter havniae 11604; assay: agar serial dilution MIC; assay type: cell-based; settings: Example 4
Experimental: as §1, §2, §3

[4] = test system: Providencia alcalifaciens 9886; assay: agar serial dilution MIC; assay type: cell-based; settings: Example 4
Experimental: as §1, §2, §3

Serratia rubidae 27593 = assay: agar serial dilution MIC; assay type: cell-based; settings: Example 4
Experimental: as §1, §2, §3

Shigella flexneri 12025 = assay: agar serial dilution MIC; assay type: cell-based; settings: Example 4
Experimental: as §1, §2, §3

[5] = test system: Serratia marcescens 13880; assay: agar serial dilution MIC; assay type: cell-based; settings: Example 4
Experimental: as §1, §2, §3

[6] = test system: Salmonella cholera-suis 13312; assay: agar serial dilution MIC; assay type: cell-based
Experimental: as §1, §2, §3

[7] = test system: Klebsiella rhinoscleromatis 13884; assay: agar serial dilution MIC; assay type: cell-based; settings: Klebsiella pneumoniae, Example 4
Experimental: as §1, §2, §3

Arizona arizonae 13314 = assay: agar serial dilution MIC; assay type: cell-based
Experimental: as §1, §2, §3

[8] = test system: Enterobacter cloacae 13047; assay: agar serial dilution MIC; assay type: cell-based; settings: Example 4
Experimental: as §1, §2, §3

Edwardsiella tarda 15947 = assay: agar serial dilution MIC; assay type: cell-based
Experimental: as §1, §2, §3

[9] = test system: Citrobacter freundii 8090; assay: agar serial dilution MIC; assay type: cell-based; settings: Example 4
Experimental: as §1, §2, §3

[10] = test system: Citrobacter diversus 27156; assay: agar serial dilution MIC; assay type: cell-based; settings: Citrobacter koseri, Example 4
Experimental: as §1, §2, §3

[11] = test system: Klebsiella pneumoniae 13883; assay: agar serial dilution MIC; assay type: cell-based
Experimental: as §1, §2, §3

Shigella sonnei 11060 = assay: agar serial dilution MIC; assay type: cell-based; settings: Example 4
Experimental: as §1, §2, §3

[12] = test system: Acinetobacter calcoaceticus 9957; assay: agar serial dilution MIC; assay type: cell-based
Experimental: as §1, §2, §3

Salmonella typhi 19430 = assay: agar serial dilution MIC; assay type: cell-based; settings: Salmonella enterica
Experimental: as §1, §2, §3

[13] = test system: Enterobacter agglomerans 27155; assay: agar serial dilution MIC; assay type: cell-based
Experimental: as §1, §2, §3

Shigella boydii 9207 = assay: agar serial dilution MIC; assay type: cell-based; settings: Example 4
Experimental: as §1, §2, §3

Proteus mirabilis 9921 = assay: agar serial dilution MIC; assay type: cell-based; settings: Example 4
Experimental: as §1, §2, §3

Klebsiella ozaenae 11296 = assay: agar serial dilution MIC; assay type: cell-based
Experimental: as §1, §2, §3

[14] = test system: Serratia liquefaciens 27592; assay: agar serial dilution MIC; assay type: cell-based; settings: Example 4
Experimental: as §1, §2, §3

[15] = test system: Staphylococcus aureaus CHP; assay: mice infected intraperitoneally, single dose six hours post-infection, deaths and CD50; assay type: in vivo; settings: for ED50: Staphylococcus, po, single dose, mice; for Deaths / Total No. Treated: oral
Experimental: Mice are infected intraperitoneally with a standardized suspension of Staphylococcus aureaus CHP in 5% gastric mucin. The animals are randomized. Six hours post-infection a single dose of the compound indicated is administered by the route indicated. The animals are observed for a 30 day period and deaths are recorded daily. The CD50 for 14 and 30 days as determined by the method of Reed and Muench, American Journal of Hygiene (1938), for each compound is tabulated:
7-[2-(5-Acetylamino-1,3,4-thiadiazol-2-ylthio)acetamido]cephalosporanic acid is tested as described in Example 5.

[16] = test system: Neisseria catarrhalis (NE CA) 8193; assay: agar serial dilution MIC; assay type: cell-based
Experimental: as §1, §2
(§4) A second preparation of 7-[2-(4,5-dihydro-5-imino-1,3,4-thiadiazol-2-ylthio)acetamido]cephalosporanic acid prepared as described in Example 1 is tested as described in Example 2. The minimum inhibitory concentrations obtained are as follows: […]

[17] = test system: Pseudonomas aeruginosa (PS AE) 10145; assay: agar serial dilution MIC; assay type: cell-based
Experimental: as §1, §2, §4

[18] = 18 h, second preparation (Example 3), read-out: minimum inhibitory concentration (MIC)
[19] = first preparation (Example 2), HBr salt, 35° C., 18 hours, read-out: minimum concentration (MIC) required to completely inhibit growth

With CC(=O)OCC1=C(C(=O)O)N2C(=O)C(NC(=O)CSc3n[nH]c(=N)s3)C2SC1 (stereo not shown) [7-[2-(4,5-Dihydro-5-Imino-1,3,4-Thiadiazol-2-ylthio)Acetamido]Cephalosporanic Acid] the MIC [1] was 250 µg/mL (≈ 561 µM), the MIC [2] was 1.95 µg/mL (≈ 4.38 µM) and the MIC (Proteus rettgeri 9918) was 250 µg/mL (≈ 561 µM). It also gave an MIC [3] of over 250 µg/mL, an MIC [4] of over 250 µg/mL and an MIC (Serratia rubidae 27593) of over 250 µg/mL. The MIC (Shigella flexneri 12025; listed as A) was 31.3 µg/mL (≈ 70.3 µM), the MIC (Shigella flexneri 12025; listed as B) was 7.81 µg/mL (≈ 17.5 µM) and the MIC [5] was over 250 µg/mL. It also gave an MIC [6] of 1.95 µg/mL (≈ 4.38 µM), an MIC [7] of over 250 µg/mL and an MIC (Arizona arizonae 13314; Salmonella enterica, 13314, Example 4) of 1.95 µg/mL (≈ 4.38 µM). For the same compound, the MIC (Arizona arizonae 13314; Salmonella enterica, 13314, Example 4, read-out: MIC) was 3.9 µg/mL (≈ 8.75 µM), the MIC [8] was over 250 µg/mL and the MIC (Edwardsiella tarda 15947; Edwardsiella tarda, 15947, Example 4) was 31.3 µg/mL (≈ 70.3 µM). It also gave an MIC (Edwardsiella tarda 15947; Edwardsiella tarda, 15947, Example 4, read-out: MIC) of 15.6 µg/mL (≈ 35 µM), an MIC [9] of over 250 µg/mL and an MIC [10] of 1.95 µg/mL (≈ 4.38 µM). It also gave an MIC ([11]; Klebsiella pneumoniae, 13883, Example 4) of 7.81 µg/mL (≈ 17.5 µM), an MIC ([11]; Klebsiella pneumoniae, 13883, Example 4, read-out: MIC) of 15.6 µg/mL (≈ 35 µM) and an MIC (Shigella sonnei 11060) of 62.5 µg/mL (≈ 140 µM). For the same compound, the MIC [12] was 7.81 µg/mL (≈ 17.5 µM), the MIC (Salmonella typhi 19430) was 1.95 µg/mL (≈ 4.38 µM) and the MIC ([13]; Pantoea agglomerans, 27155, Example 4) was 7.81 µg/mL (≈ 17.5 µM). It also gave an MIC ([13]; Pantoea agglomerans, 27155, Example 4, read-out: MIC) of 15.6 µg/mL (≈ 35 µM), an MIC (Shigella boydii 9207) of 62.5 µg/mL (≈ 140 µM) and an MIC (Proteus mirabilis 9921) of 7.81 µg/mL (≈ 17.5 µM). It also gave an MIC (Klebsiella ozaenae 11296) of 1.95 µg/mL (≈ 4.38 µM), an MIC [14] of over 250 µg/mL and an ED50 ([15]; 336 h, 14 Days) of 3.21 mg/kg. The ED50 ([15]; 720 h, 30 Days) was 3.4 mg/kg, the “Deaths / Total No. Treated” value ([15]; 100 mg/kg., 14 Days) was 10/10 and the “Deaths / Total No. Treated” value ([15]; 100 mg/kg., 30 Days) was 10/10. The “Deaths / Total No. Treated” value ([15]; 200 mg/kg., 14 Days) was 4/10, the “Deaths / Total No. Treated” value ([15]; 200 mg/kg., 30 Days) was 4/10 and the “Deaths / Total No. Treated” value ([15]; 400 mg/kg., 14 Days) was 0/10. For the same compound, the “Deaths / Total No. Treated” value ([15]; 400 mg/kg., 30 Days) was 0/10, the “Deaths / Total No. Treated” value ([15]; 800 mg/kg., 14 Days) was 0/10 and the “Deaths / Total No. Treated” value ([15]; 800 mg/kg., 30 Days) was 1/10. The MIC [16, 18] was 62.5 µg/mL (≈ 140 µM), the MIC [16, 19] was 31.3 µg/mL and the MIC [17, 18] was over 250 µg/mL. It also gave an MIC [17, 19] of over 250 µg/mL.
